# What was measured:
# [1] = molecular target: purified human autoBACE-2 (Homo sapiens (Human), UniProt Q9Y5Z0); assay: BACE-2 Assay (BACE-HTRF assay); assay type: biochemical; conditions: Ki calculated from IC50 using the Cheng-Prusoff equation; QSY7-EISEVNLDAEFC-Eu-amide substrate 200 nM, pH 5.0
# Protocol: Inhibitor IC50s at purified human autoBACE-2 are determined in a time-resolved endpoint proteolysis assay that measures hydrolysis of the QSY7-EISEVNLDAEFC-Eu-amide FRET peptide substrate (BACE-HTRF assay). BACE-mediated hydrolysis of this peptide results in an increase in relative fluorescence (RFU) at 620 nm after excitation with 320 nm light. Inhibitor compounds, prepared at 3× the desired final concentration in 1×BACE assay buffer (20 mM sodium acetate pH 5.0, 10% glycerol, 0.1% Brij-35) supplemented with 7.5% DMSO are pre-incubated with an equal volume of autoBACE-2 enzyme diluted in 1×BACE assay buffer (final enzyme concentration 1 nM) in black 384-well NUNC plates for 30 minutes at 30° C. […] DMSO is present at […] final concentration in the assay. Following laser excitation of sample wells at 320 nm, the fluorescence signal at 620 nm is collected for 400 ms following a 50 μs delay on a RUBYstar HTRF plate reader (BMG Labtechnologies). Raw RFU data is normalized to maximum (1.0 nM BACE/DMSO) and minimum (no enzyme/DMSO) RFU values. IC50s are determined by nonlinear regression analysis (sigmoidal dose response, variable slope) of percent inhibition data with minimum and maximum values set to 0 and 100 percent respectively. Similar IC50s are obtained when using raw RFU data. The Ki values are calculated from the IC50 using the Cheng-Prusoff equation.
# [2] = molecular target: soluble human BACE1 catalytic domain (Homo sapiens (Human), UniProt P56817); assay: BACE-1 Ki Assay (BACE-1 HTRF FRET Assay); assay type: biochemical; conditions: Ki calculated from IC50 using the Cheng-Prusoff equation; QSY7-APPswe-Eu substrate 200 nM, pH 5.0
# Chain of soluble human BACE1 catalytic domain (P56817 75-416): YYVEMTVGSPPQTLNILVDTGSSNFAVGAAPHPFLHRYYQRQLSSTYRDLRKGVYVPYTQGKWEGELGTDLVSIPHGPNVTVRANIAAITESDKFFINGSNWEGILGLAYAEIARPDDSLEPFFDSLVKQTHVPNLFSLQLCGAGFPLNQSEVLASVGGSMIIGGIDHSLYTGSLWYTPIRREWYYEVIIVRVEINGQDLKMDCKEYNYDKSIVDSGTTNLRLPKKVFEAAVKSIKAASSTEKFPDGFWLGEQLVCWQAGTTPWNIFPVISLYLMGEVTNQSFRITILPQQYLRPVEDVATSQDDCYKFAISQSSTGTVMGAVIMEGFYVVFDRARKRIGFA
# Protocol: In another embodiment, the compounds of the invention comprise the example compounds shown in the table below, or a tautomer thereof, or a pharmaceutically acceptable salt of said compound or said tautomer. Examples 2 to 42 were prepared using the method similar to Ex. 1. Example 44 to 51 were synthesized using the method similar to Ex. 43. BACE-1 values reported in this table were measured using BACE-1 Ki Assay (BACE-1 HTRF FRET Assay).
# • Reagents: Na^+-Acetate pH 5.0; 1% Brij-35; Glycerol; Dimethyl Sulfoxide (DMSO); Recombinant human soluble BACE1 catalytic domain (>95% pure); APP Swedish mutant peptide substrate (QSY7-APP^swe-Eu): QSY7-EISEVNLDAEFC-Europium-amide.
# A homogeneous time-resolved FRET assay can be used to determine IC50 values for inhibitors of the soluble human BACE1 catalytic domain. This assay monitors the increase of 620 nm fluorescence that resulted from BACE1 cleavage of an APPswedish APP^swe mutant peptide FRET substrate (QSY7-EISEVNLDAEFC-Europium-amide). This substrate contains an N-terminal QSY7 moiety that serves as a quencher of the C-terminal Europium fluorophore (620 nm Em). In the absence of enzyme activity, 620 nm fluorescence is low in the assay and increased linearly over 3 hours in the presence of uninhibited BACE1 enzyme. Inhibition of BACE1 cleavage of the QSY7-APP^swe-Eu substrate by inhibitors is manifested as a suppression of 620 nm fluorescence.
# Varying concentrations of inhibitors at 3× the final desired concentration in a volume of 10 ul are preincubated with purified human BACE1 catalytic domain (3 nM in 10 μl) for 30 minutes at 30° C. in reaction buffer containing 20 mM Na-Acetate pH 5.0, 10% glycerol, 0.1% Brij-35 and 7.5% DSMO. Reactions are initiated by addition of 10 μl of 600 nM QSY7-APP^swe-Eu substrate (200 nM final) to give a final reaction volume of 30 μl in a 384 well Nunc HTRF plate. The reactions are incubated at 30° C. for 1.5 hours. The 620 nm fluorescence is then read on a Rubystar HTRF plate reader (BMG Labtechnologies) using a 50 millisecond delay followed by a 400 millisecond acquisition time window. Inhibitor IC50 values are derived from non-linear regression analysis of concentration response curves. Ki values are then calculated from IC50 values using the Cheng-Prusoff equation using a previously determined […] of 8 μM for the QSY7-APP^swe-Eu substrate at BACE1.
# Chain of purified human autoBACE-2 (Q9Y5Z0 63-473 limits assumed): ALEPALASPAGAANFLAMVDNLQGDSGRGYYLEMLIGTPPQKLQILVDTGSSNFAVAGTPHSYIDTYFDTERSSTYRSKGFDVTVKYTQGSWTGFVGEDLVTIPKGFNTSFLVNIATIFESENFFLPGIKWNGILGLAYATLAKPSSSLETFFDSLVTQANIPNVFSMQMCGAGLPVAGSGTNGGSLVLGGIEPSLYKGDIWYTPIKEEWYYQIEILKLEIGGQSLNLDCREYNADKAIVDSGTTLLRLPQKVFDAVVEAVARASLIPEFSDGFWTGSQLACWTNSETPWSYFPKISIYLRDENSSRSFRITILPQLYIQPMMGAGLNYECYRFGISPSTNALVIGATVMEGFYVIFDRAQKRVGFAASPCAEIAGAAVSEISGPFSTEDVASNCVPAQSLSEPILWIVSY
Ki [1],Ki [2],SMILES
24.4 nM,16.6 nM,"Cc1ncc2c(n1)C[C@@](C)(c1sc(-c3cc(F)cc(-c4nnco4)c3)cc1Cl)NC2=N [Example 28, (7S)-7-{3-chloro-5-[3-fluoro-5-(1,3,4-oxadiazol-2-yl)phenyl]thiophen-2-yl}-2,7-dimethyl-7,8-dihydropyrido[4,3-d]pyrimidin-5(6H)-imine]"
48.3 nM,18.1 nM,"Cc1ncc2c(n1)C[C@@](C)(c1cc(NC(=O)c3ccc(C(F)(F)F)cn3)ccc1F)NC2=N [Example 46, N-{4-fluoro-3-[(7S)-5-imino-2,7-dimethyl-5,6,7,8-tetrahydropyrido[4,3-d]pyrimidin-7-yl]phenyl}-5-(trifluoromethyl)pyridine-2-carboxamide]"
207 nM,62.7 nM,"C[C@@]1(c2cc(NC(=O)c3ccc(C#N)cn3)ccc2F)Cc2nccnc2C(=N)N1 [Example 51, 5-cyano-N-{4-fluoro-3-[(7S)-5-imino-7-methyl-5,6,7,8-tetrahydropyrido[3,4-b]pyrazin-7-yl]phenyl}pyridine-2-carboxamide]"
3 nM,9.4 nM,"C[C@@]1(c2cc(NC(=O)c3ccc(F)cn3)ccc2F)Cc2ncncc2C(=N)N1 [Example 43, 5-fluoro-N-{4-fluoro-3-[(7S)-5-imino-7-methyl-5,6,7,8-tetrahydropyrido[4,3-d]pyrimidin-7-yl]phenyl}pyridine-2-carboxamide]"
79.7 nM,482 nM,"Cc1ncc2c(n1)C[C@@](C)(c1sc(-c3cccc(-c4ncno4)c3)cc1Cl)NC2=N [Example 29, (7S)-7-{3-chloro-5-[3-(1,2,4-oxadiazol-5-yl)phenyl]thiophen-2-yl}-2,7-dimethyl-7,8-dihydropyrido[4,3-d]pyrimidin-5(6H)-imine]"
4.8 nM,38.2 nM,"COc1cccc2cc(-c3csc([C@]4(C)Cc5nc(C6CC6)ncc5C(=N)N4)c3)[nH]c12 [Example 33, (7S)-2-cyclopropyl-7-[4-(7-methoxy-1H-indo1-2-yl)thiophen-2-yl]-7-methyl-7,8-dihydropyrido[4,3-d]pyrimidin-5(6H)-imine]"
29.1 nM,10.6 nM,"Cc1ncc2c(n1)C[C@@](C)(c1sc(-c3cccc(-c4nnco4)c3)cc1Cl)NC2=N [Example 26, (7S)-7-{3-chloro-5-[3-(1,3,4-oxadiazol-2-yl)phenyl]thiophen-2-yl}-2,7-dimethyl-7,8-dihydropyrido[4,3-d]pyrimidin-5(6H)-imine]"
65.6 nM,128 nM,"C[C@@]1(c2cc(-c3cccc(C#N)c3)cs2)Cc2nc(C3CC3)ncc2C(=N)N1 [Example 32, 3-{5-[(7S)-2-cyclopropyl-5-imino-7-methyl-5,6,7,8-tetrahydropyrido[4,3-d]pyrimidin-7-yl]thiophen-3-yl}benzonitrile]"
2 nM,22.3 nM,"COc1cccc2cc(-c3cc(Cl)c([C@]4(C)Cc5nc(C6CC6)ncc5C(=N)N4)s3)[nH]c12 [Example 38, (7S)-7-[3-chloro-5-(7-methoxy-1H-indo1-2-yl)thiophen-2-yl]-2-cyclopropyl-7-methyl-7,8-dihydropyrido[4,3-d]pyrimidin-5(6H)-imine]"
121 nM,49.6 nM,"C[C@@]1(c2cc(-c3cccc(-c4nnco4)c3)cs2)Cc2nc(C(F)(F)F)ncc2C(=N)N1 [Example 42, (7S)-7-methyl-7-{4-[3-(1,3,4-oxadiazol-2-yl)phenyl]thiophen-2-yl}-2-(trifluoromethyl)-7,8-dihydropyrido[4,3-d]pyrimidin-5(6H)-imine]"
3 nM,13.1 nM,"C[C@@]1(c2cc(NC(=O)c3ccc(F)cn3)ccc2F)Cc2nc(C3CC3)ncc2C(=N)N1 [Example 48, N-{3-[(7S)-2-cyclopropyl-5-imino-7-methyl-5,6,7,8-tetrahydropyrido[4,3-d]pyrimidin-7-yl]-4-fluorophenyl}-5-fluoropyridine-2-carboxamide]"
15.1 nM,35.2 nM,"C[C@@]1(c2sc(-c3cccc(C#N)c3)cc2Cl)Cc2ncncc2C(=N)N1 [Example 13, 3-{4-chloro-5-[(7S)-5-imino-7-methyl-5,6,7,8-tetrahydropyrido[4,3-d]pyrimidin-7-yl]thiophen-2-yl}benzonitrile]"
97.7 nM,208 nM,"C[C@@]1(c2cc(-c3cncc(C#N)c3)cs2)Cc2nc(C(F)(F)F)ncc2C(=N)N1 [Example 41, 5-{5-[(7S)-5-imino-7-methyl-2-(trifluoromethyl)-5,6,7,8-tetrahydropyrido[4,3-d]pyrimidin-7-yl]thiophen-3-yl}pyridine-3-carbonitrile]"
130 nM,253 nM,"C[C@@]1(c2cc(-c3cncc(Cl)c3)ccc2F)Cc2ncncc2C(=N)N1 [Example 4, (7S)-7-[5-(5-chloropyridin-3-yl)-2-fluoro-phenyl]-7-methyl-7,8-dihydropyrido[4,3-d]pyrimidin-5(6H)-imine]"
21.5 nM,48.9 nM,"C[C@@]1(c2sc(-c3cccc(C#N)c3)cc2Cl)Cc2nc(C3CC3)ncc2C(=N)N1 [Example 36, 3-{4-chloro-5-[(7S)-2-cyclopropyl-5-imino-7-methyl-5,6,7,8-tetrahydropyrido[4,3-d]pyrimidin-7-yl]thiophen-2-yl}benzonitrile]"
1.5 nM,28.9 nM,"COc1cccc2cc(-c3csc([C@]4(C)Cc5nc(C(F)(F)F)ncc5C(=N)N4)c3)[nH]c12 [Example 39, (7S)-7-[4-(7-methoxy-1H-indo1-2-yl)thiophen-2-yl]-7-methyl-2-(trifluoromethyl)-7,8-dihydropyrido[4,3-d]pyrimidin-5(6H)-imine]"
34.2 nM,20.5 nM,"C[C@@]1(c2cc(NC(=O)c3ccc(C(F)(F)F)cn3)ccc2F)Cc2nc(C3CC3)ncc2C(=N)N1 [Example 49, N-{3-[(7S)-2-cyclopropyl-5-imino-7-methyl-5,6,7,8-tetrahydropyrido[4,3-d]pyrimidin-7-yl]-4-fluorophenyl}-5-(trifluoromethyl)pyridine-2-carboxamide]"
31.6 nM,75.2 nM,"C[C@@]1(c2sc(-c3cncc(C#N)c3)cc2Cl)Cc2ncncc2C(=N)N1 [Example 14, 5-{4-chloro-5-[(7S)-5-imino-7-methyl-5,6,7,8-tetrahydropyrido[4,3-d]pyrimidin-7-yl]thiophen-2-yl}pyridine-3-carbonitrile]"
483 nM,601 nM,"C[C@@]1(c2cc(-c3cncc(C#N)c3)ccc2F)Cc2ncncc2C(=N)N1 [Example 9, 5-{4-fluoro-3-[(7S)-5-imino-7-methyl-5,6,7,8-tetrahydropyrido[4,3-d]pyrimidin-7-yl]phenyl}pyridine-3-carbonitrile]"
87.8 nM,225 nM,"COc1cncc(-c2ccc(F)c([C@]3(C)Cc4ncncc4C(=N)N3)c2)c1 [Example 8, (7S)-7-[2-fluoro-5-(5-methoxypyridin-3-yl)phenyl]-7-methyl-7,8-dihydropyrido[4,3-d]pyrimidin-5(6H)-imine]"
4.5 nM,16.8 nM,"Cc1ncc2c(n1)C[C@@](C)(c1cc(NC(=O)c3ccc(F)cn3)ccc1F)NC2=N [Example 44, 5-fluoro-N-{4-fluoro-3-[(7S)-5-imino-2,7-dimethyl-5,6,7,8-tetrahydropyrido[4,3-d]pyrimidin-7-yl]phenyl}pyridine-2-carboxamide]"

# From patent US9868738B2, “Diazine-fused amidines as BACE inhibitors, compositions, and their use” (Merck Sharp & Dohme Corp., priority 2014, dated 2018)
